The results in this text go back to patent publication US8273780B2, “Polycyclic antagonists of lysophosphatidic acid receptors” (Amira Pharmaceuticals, Inc., priority 2009, dated 2012).

A value given as a limit tells only on which side of the number the result lay.

One assay deals with BALB/c mice. Nature of the assay: Mouse dermal vascular leak assay. Conditions: 30 mg/kg oral gavage, three hours before dye; intradermal LPA 30 μg. The format is in vivo. The procedure:
Female BALB/c mice (Harlan) weighing 20-25 grams were given free access to standard mouse chow and water and were allowed to acclimate for two weeks prior to study initiation. Compound 1 was prepared in water vehicle at a concentration of 3 mg/ml and delivered by oral gavage at a volume of 10 ml/kg to yield a dose of 30 mg/kg. Three hours following dose, mice were placed into a restraining device and given Evan's blue dye intravenously by tail vein injection (0.2 ml of a 0.5% solution). Mice were then anesthetized using 3% isoflurane anaesthesia to allow for intradermal injection of LPA (30 μg in 20 μl 0.1% fatty acid free BSA). Thirty minutes after LPA injection mice were sacrificed by CO2 inhalation and the skin removed from the challenge site and placed into 2 ml formamide for overnight extraction of Evan's blue dye.
Following extraction, a 150 μl aliquot of formamide for each tissue sample was placed into a 96 well plate and read at 610 nm using a photospectometer. The resulting data (OD units) were plotted using GraphPad Prizm. In this experiment compound 1 reduced LPA-induced Evan's blue dye leak into the skin.

In the next assay the target is T1, Human LPA3 (Homo sapiens, UniProt Q9UBY5).
T1 construct: The full-length cDNA fragment for human LPA3 was obtained by PCR from the vector; expressed in transfected cells; cDNA from the Missouri S&T cDNA Resource Center
T1 sequence (Q9UBY5 1-353): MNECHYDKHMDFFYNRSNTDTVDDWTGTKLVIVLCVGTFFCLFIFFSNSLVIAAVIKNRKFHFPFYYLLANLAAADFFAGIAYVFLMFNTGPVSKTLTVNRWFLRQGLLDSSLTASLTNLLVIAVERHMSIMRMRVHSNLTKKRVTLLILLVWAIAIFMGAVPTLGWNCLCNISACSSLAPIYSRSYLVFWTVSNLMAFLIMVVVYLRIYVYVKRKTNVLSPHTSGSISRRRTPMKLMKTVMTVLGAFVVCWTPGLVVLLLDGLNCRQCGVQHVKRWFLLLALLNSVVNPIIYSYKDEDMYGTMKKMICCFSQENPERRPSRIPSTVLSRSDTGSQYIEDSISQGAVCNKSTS
Description: LPA3 calcium flux assay. The format is cell-based. Conditions: CHO cells expressing human LPA3, 10 nM LPA; read-out: HLPA3 Ca Flux IC50. The method, boiled down:
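Stable hLPA3-CHO cells, serum-starved overnight, loaded with Calcium 4 dye in HBSS/20 mM HEPES/0.3% fatty-acid-free HSA for 1 h at 37° C. Compounds added for 30 min at room temperature, then cells stimulated with 10 nM LPA. Intracellular Ca^2+ measured; IC50 from titration curves.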
In general terms: Calcium assays in cells follow changes in intracellular calcium, usually with a dye or a luminescent sensor.

The target in the next assay is T2, Human LPA1 (Homo sapiens, UniProt Q92633).
T2 construct: the full-length cDNA for human LPA1 was obtained by PCR of the reverse transcription reaction; expressed in transfected cells
T2 sequence (Q92633 whole entry): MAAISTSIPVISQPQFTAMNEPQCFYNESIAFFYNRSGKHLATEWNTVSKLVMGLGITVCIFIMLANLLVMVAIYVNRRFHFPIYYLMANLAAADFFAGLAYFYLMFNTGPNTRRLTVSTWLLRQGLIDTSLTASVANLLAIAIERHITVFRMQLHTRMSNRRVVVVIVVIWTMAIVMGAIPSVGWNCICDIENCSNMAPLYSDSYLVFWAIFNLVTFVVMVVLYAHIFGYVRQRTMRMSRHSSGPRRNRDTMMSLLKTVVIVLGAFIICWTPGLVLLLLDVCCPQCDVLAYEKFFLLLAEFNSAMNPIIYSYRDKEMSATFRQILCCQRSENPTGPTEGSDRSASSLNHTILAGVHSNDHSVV
Nature of the assay: LPA1 calcium flux assay. In kind it is cell-based. Conditions: CHO cells expressing human LPA1, 10 nM LPA; read-out: HLPA1 Ca Flux IC50. The procedure, abridged:
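CHO cells stably expressing cloned human LPA1, serum-starved overnight, loaded 1 h at 37 °C with Calcium 4 dye in HBSS/20 mM Hepes/0.3% fatty-acid-free HSA. Compounds preincubated 30 min at room temp, then stimulated with 10 nM LPA; intracellular Ca2+ measured and IC50 derived from titration curves.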

Assay [1] concerns human A2058 melanoma cells. Nature of the assay: LPA1 chemotaxis assay. In kind it is cell-based. Conditions: 100 nM LPA, read-out: inhibition of LPA-driven chemotaxis IC50. The procedure: Chemotaxis of the A2058 human melanoma cells was measured using the Neuroprobe ChemoTx® System plates (8 μM pore size, 5.7 mm diameter sites). The filter sites were coated with 0.001% fibronectin (Sigma) in 20 mM Hepes, pH 7.4 and allowed to dry. A2058 cells were serum-starved for 24 hours, then harvested with Cell Stripper and resuspended in DMEM containing 0.1% fatty-acid-free bovine serum albumin (BSA) to a concentration of 1×10^6/ml. Cells were mixed with an equal volume of test compound (2×) in DMEM containing 0.1% fatty-acid-free BSA and incubated at 37° C. for 15 minutes. LPA (100 nM in DMEM containing 0.1% fatty-acid-free BSA) or vehicle was added to each well of the lower chamber and 50 μl of the cell suspension/test compound mix was applied to the upper portion of the ChemoTx plate. Plates were incubated at 37° C. for three hours and then the cells removed from the upper portion by rinsing with PBS and scraping. The filter was dried then stained with HEMA 3 Staining System (Fisher Scientific). The absorbance of the filter was read at 590 nm and IC50s were determined using Symyx Assay Explorer.

A word on the IC50: it is the point on the concentration scale where inhibition reaches its midpoint. Consider `Cc1noc(-c2ccc(-c3ccc(C4(C(=O)O)CC4)cc3)cc2)c1NC(=O)O[C@H](C)c1ccccc1` [Compound 1, 1-{4′-[3-Methyl-4-((R)-1-phenyl-ethoxycarbonylamino)-isoxazol-5-yl]-biphenyl-4-yl}-cyclopropanecarboxylic acid], for which the “LPA-induced Evan's blue dye leak into the skin” value with BALB/c mice is recorded as “reduced”. Also, the IC50 at Human LPA3 is 1000 to 10000 nM; at Human LPA1 it was less than 300 nM; in assay [1], less than 100 nM.
